This is an account of results in patent US20110288154A1, “RNA Interference Mediated Inhibition of Epithelial Sodium Channel (ENaC) Gene Expression Using Short Interfering Nucleic Acid (siNA)” (MERCK & CO., INC., priority 2008, published 2011).

The series has as its system mSCNN1A mRNA. The experiment in a line: Screening of ENaCα siNAs in mouse NIH 3T3 cells (quantitative RT-PCR). The format is cell-based. Also noted: Percent Reduction of the mSCNN1A mRNA relative to a non-targeting control siNA / Mouse % KD (efficacy of ENaCα mRNA knockdown): concentration or dose not given beside the values. The conditions noted are these: for Mean (mSCNN1A expression normalized to the level of m36B4) / Percent Reduction of the mSCNN1A mRNA relative to a non-targeting control siNA / Avg ENaCα Expression (mSCNN1A) / Avg 36B4 Expression: mouse NIH 3T3 cells, n = 3; for Mean (mSCNN1A expression normalized to the level of m36B4) / Percent Reduction of the mSCNN1A mRNA relative to a non-targeting control siNA / Avg 36B4 Expression: 24 hours post-transfection; for Avg ENaCα Expression (mSCNN1A): harvested 24 hours post-transfection; for Avg 36B4 Expression: housekeeping gene used for normalisation. A digest of the protocol: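 Knockdown read-out: qRT-PCR quantified against a standard curve of same-cell-line RNA, ENaCα normalized to species housekeeping gene (GAPDH or 36B4) and expressed versus non-targeting control. Cells received lipid-complexed siNA, 25 nM final, in triplicate and were assayed at 24 h; IC50 by variable-slope sigmoidal fit.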

[invAb] = inverted abasic unit; m = 2'-O-methyl; r = 2'-OH (RNA); f = 2'-fluoro

Regarding “B uccuGuccAAccuGGGcAG TTB / CUGcccAGGuuGGAcAGGAUU (sense UCCUGUCCAACCUGGGCAGTT; antisense CUGCCCAGGUUGGACAGGAUU; siRNA; sense: DNA at AGT, 2'-fluoro at CU, [invAb] at 5' end, 3' end, backbone not given here; antisense: sugars from the 5' end rrrfffmmmffmmmfmmmmmm, backbone not given here) [Site 1739]”, the “Mean (mSCNN1A expression normalized to the level of m36B4)” value is 0.13, the “Percent Reduction of the mSCNN1A mRNA relative to a non-targeting control siNA” value was 7.3%, the “Avg ENaCα Expression (mSCNN1A)” value is 2.87 and the “Avg 36B4 Expression” value is 22.65.
By IC50 is commonly meant the concentration that gives 50% inhibition. As to “B uuAuGGAuGAuGGuGGcuu TTB / AAGccAccAucAuccAuAAUU (sense UUAUGGAUGAUGGUGGCUUTT; antisense AAGCCACCAUCAUCCAUAAUU; siRNA; B caps on sense ends, letter-case modifications not given here, further chemistry not given here) [Site 1181]”, the “Mean (mSCNN1A expression normalized to the level of m36B4)” value turned out to be 0.04, the “Percent Reduction of the mSCNN1A mRNA relative to a non-targeting control siNA” value was 84.4%, the “Avg ENaCα Expression (mSCNN1A)” value is reported as 0.54 and the “Avg 36B4 Expression” value was determined as 15.48. For the same substance, the half-maximal inhibitory concentration (IC50) (mouse cell line, dose response, read-out: Mouse IC50 (potency of ENaCα mRNA knockdown)) amounted to 4.1 nM. Besides, where the note is “mouse cell line, summary”, the “Mouse % KD (efficacy of ENaCα mRNA knockdown)” value is reported as 84%.
